Columns and labels:
Format in all cases: in vivo
[1] = tested on: sedge, umbrella (small-flower umbrella sedge, Cyperus difformis); assay: Test B flooded paddy test; settings: Flood, 250 g ai/ha; 0 to 100 scale where 0 is no effect and 100 is complete control; 13 to 15 d
Outline: (§1)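 Plants at 2-leaf stage flooded to 3 cm above soil, with compounds applied directly to paddy water and that depth maintained. Plants kept in greenhouse 13–15 d. Visual rating versus controls on a 0 (no effect) to 100 (complete control) scale.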

[2] = tested on: barnyardgrass (Echinochloa crus-galli); assay: Test B flooded paddy test; settings: Flood, 250 g ai/ha; 0 to 100 scale where 0 is no effect and 100 is complete control; 13 to 15 d
Outline: as §1

rice (Oryra sativa) = assay: Test B flooded paddy test; settings: Flood, 250 g ai/ha; 0 to 100 scale where 0 is no effect and 100 is complete control; 13 to 15 d
Outline: as §1

[3] = tested on: ducksalad (Heteranthera limosa); assay: Test B flooded paddy test; settings: Flood, 250 g ai/ha; 0 to 100 scale where 0 is no effect and 100 is complete control; 13 to 15 d
Outline: as §1

Kochia (Kochia scoparia) [4] = assay: Test A postemergence; settings: postemergence
Outline: (§2)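 Preemergence directed soil spray on seeded pots, or postemergence application to plants 2–10 cm, one- to two-leaf. Solvent mixture non-phytotoxic, with surfactant. Scored ~10 d later, visually, 0–100 vs untreated.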

[5] = tested on: ragweed (common ragweed, Ambrosia elatior); assay: Test A postemergence; settings: postemergence
Outline: as §2

[6] = tested on: ryegrass, Italian (Italian ryegrass, Lolium multiflorum); assay: Test A postemergence; settings: postemergence
Outline: as §2

[7] = tested on: pigweed (Amaranthus retroflexus); assay: Test A postemergence; settings: postemergence
Outline: as §2

[8] = tested on: blackgrass (Alopecurus myosuroides); assay: Test A postemergence
Outline: as §2

[9] = tested on: barnyardgrass (Echinochloa crus-galli); assay: Test A postemergence
Outline: as §2

[10] = tested on: wheat (Triticum aestivum); assay: Test A postemergence; settings: postemergence
Outline: as §2

[11] = tested on: giant foxtail (Setaria faberii); assay: Test A postemergence; settings: postemergence
Outline: as §2

[12] = tested on: Galium (catchweed bedstraw, Galium aparine); assay: Test A postemergence; settings: postemergence
Outline: as §2

corn (Zea mays) = assay: Test A postemergence; settings: postemergence
Outline: as §2

Kochia (Kochia scoparia) [13] = assay: Test A preemergence
Outline: as §2

[14] = tested on: ragweed (common ragweed, Ambrosia elatior); assay: Test A preemergence
Outline: as §2

[15] = tested on: ryegrass, Italian (Italian ryegrass, Lolium multiflorum); assay: Test A preemergence
Outline: as §2

[16] = tested on: pigweed (Amaranthus retroflexus); assay: Test A preemergence
[17] = tested on: barnyardgrass (Echinochloa crus-galli); assay: Test A preemergence
Outline: as §2

[18] = tested on: giant foxtail (Setaria faberii); assay: Test A preemergence
Outline: as §2

[19] = 125 g ai/ha, visual injury rating on 0 to 100 scale (0 no effect, 100 complete control), approx. 10 d
[20] = 500 g ai/ha, 0 to 100 scale, 0 no effect, 100 complete control
[21] = 500 g ai/ha, postemergence, 0 to 100 scale, 0 no effect, 100 complete control
[22] = Postemergence, 125 g ai/ha, visual injury, 0 to 100 scale (0 no effect, 100 complete control), approx. 10 d
[23] = 125 g ai/ha, preemergence, 0 to 100 scale (0 no effect, 100 complete control)
[24] = Preemergence, 500 g ai/ha, 0 is no effect, 100 is complete control

CN1CC(c2cccc(OC(F)(F)C(F)F)c2)C(C(=O)Nc2cccc(F)c2F)C1=O (stereo not drawn) [Compound 392]
Plant response rating, Sedge, Umbrella [1]: 0 | Plant response rating, Barnyardgrass [2]: 60 | Plant response rating, Rice (rice (Oryra sativa)): 20 | Plant response rating, Ducksalad [3]: 90 | Kochia plant response rating (Kochia (Kochia scoparia) [4]; [19]): 50 | Plant response rating, Kochia (Kochia (Kochia scoparia) [4]; [20]): 70 | Ragweed plant response rating [5, 19]: 50 | Plant response rating, Ragweed [5, 20]: 20 | Ryegrass, Italian plant response rating [6, 19]: 50 | Plant response rating, Ryegrass, Italian [6, 20]: 80 | Pigweed plant response rating [7, 19]: 60 | Plant response rating, Pigweed [7, 20]: 70 | Plant response rating, Blackgrass [8, 21]: 70 | Plant response rating, Blackgrass [8, 22]: 70 | Plant response rating, Barnyardgrass [9, 21]: 90 | Plant response rating, Barnyardgrass [9, 22]: 80 | Wheat plant response rating [10, 19]: 20 | Plant response rating, Wheat [10, 20]: 70 | Foxtail, Giant plant response rating [11, 19]: 90 | Plant response rating, Foxtail, Giant [11, 20]: 90 | Galium plant response rating [12, 19]: 70 | Plant response rating, Galium [12, 20]: 70 | Corn plant response rating (corn (Zea mays); [19]): 70 | Plant response rating, Corn (corn (Zea mays); [20]): 80 | Plant response rating, Kochia (Kochia (Kochia scoparia) [13]; [23]): 50 | Kochia plant response rating (0 to 100 scale) (Kochia (Kochia scoparia) [13]; [24]): 70 | Plant response rating, Ragweed [14, 23]: 70 | Ragweed plant response rating (0 to 100 scale) [14, 24]: 60 | Plant response rating, Ryegrass, Italian [15, 23]: 40 | Ryegrass, Italian plant response rating (0 to 100 scale) [15, 24]: 80 | Plant response rating, Pigweed [16, 23]: 70 | Pigweed plant response rating (0 to 100 scale) [16, 24]: 80 | Plant response rating, Barnyardgrass [17, 23]: 90 | Barnyardgrass plant response rating (0 to 100 scale) [17, 24]: 90 | Plant response rating, Foxtail, Giant [18, 23]: 90 | Foxtail, Giant plant response rating (0 to 100 scale) [18, 24]: 90
